{"source": "patent US20120122212A1", "about": "“TGF-BETA PATHWAY INHIBITORS FOR ENHANCEMENT OF CELLULAR REPROGRAMMING OF HUMAN CELLS” (priority 2009, published 2012)", "key": {"Sox2": {"tested_on": "Sox2", "assay": "Sox2 gene expression (Taqman, normalized to GAPDH) in neonatal human dermal fibroblasts", "format": "cell-based", "conditions": "for increase in Sox2 expression compared to cells that receive no drug treatment: daily feeding", "experimental": "(§1) Neonatal human dermal fibroblasts (fibroblast cell line NHDF-3955-Neo from Lonza) are cultured under standard cell culture conditions using hFib media (DMEM, 20% Earl's 199 media, 10% FBS, Glutamax, beta-mercaptoethanol (bME)). Approximately 12,000 cells per well are plated on a 12-well plate. 24 hrs after plating, cells are daily fed with media containing 4, 10, 20, 50 or 100 μM GPI-1046 (ACC Corporation) or 1% DMSO. After 6 days, cells are collected and RNA is extracted using a Qiagen RNeasy kit. Gene expression is analyzed using specific Taqman primer-probe sets for Sox2, Oct4, and GAPDH on an ABI 7900HT. Gene expression of cells previously infected with retroviruses encoding Sox2, Oct4, Klf4, and c-Myc (“KSOM”) is also analyzed and is used for positive control purposes. The expression of Sox2 and Oct4 is normalized to the expression of housekeeping gene GAPDH. […] As also indicated in FIG. 1, cells that are treated with 50 μM or 100 μM GPI-1046 express about 5.2-fold and 5.7-fold, respectively, increases in Oct4 when compared to cells that receive no agent treatment and approximately a 3.5- and 3.8-fold increase, respectively, in relative expression of Oct4 when compared to cells that are treated with DMSO.\nNeonatal human dermal fibroblasts (fibroblast cell line NHDF-3955-Neo from Lonza) are cultured under standard cell culture conditions using hFib media (DMEM, 20% Earl's 199 media, 10% FBS, Glutamax, beta-mercaptoethanol (bME)). Approximately 12,000 cells per well are plated on a 12-well plate. 24 hrs after plating, cells are daily fed with media containing 2, 5, 25 or 50 μM 616 453 (Calbiochem) or 1% DMSO. After 6 days, cells are collected and RNA is extracted using a Qiagen RNeasy kit. Gene expression is analyzed using specific Taqman primer-probe sets for Sox2 and GAPDH on an ABI 7900HT. Gene expression of cells previously infected with retroviruses encoding Sox2, Oct4, Klf4, and c-Myc (“KSOM”) is also analyzed and is used for positive control purposes. The expression of Sox2 is normalized to the expression of housekeeping gene GAPDH.\n(§2) Neonatal human dermal fibroblasts (fibroblast cell line NHDF-3955-Neo from Lonza) are cultured under standard cell culture conditions using hFib media (DMEM, 20% Earl's 199 media, 10% FBS, Glutamax, beta-mercaptoethanol (bME)). Approximately 6,000 cells per well are plated on a 24-well plate. 48 hrs after plating, cells are daily fed with media containing 1 or 100 μM GPI-1046 with or without 0.5 μM Decitabine. On day 7 of treatment, cells are collected and RNA is extracted using a Qiagen RNeasy kit. Gene expression is analyzed using specific Taqman primer-probe sets for Sox2, Oct4 and GAPDH on an ABI 7900HT. The expression of Sox2 and Oct4 is normalized to the expression of housekeeping gene GAPDH.\nas §2, with “LY 364947 (Tocris); for 50 μM 616 453 (Calbiochem); 1” for “GPI-1046 with”, “100 μM of A-83-01 (Tocris) or 1 or 100 μM SB 431542 (Tocris). Each treatment was performed in the presence or absence of” for “without”, “using” for “using a”, “Sox2” for “Sox2, Oct4”, “Sox2” for “Sox2 and Oct4”, “GAPDH. […] The morphology of the cells after treatment is depicted in FIG. 5.” for “GAPDH.”\nNeonatal human dermal fibroblasts (fibroblast cell line NHDF-3955-Neo from Lonza) are cultured under standard cell culture conditions using hES medium, as described herein. Cells are treated with 0 μM, 2 μM, 10 μM, 50 μM, or 100 μM GPI-1046. […]"}, "p21": {"tested_on": "p21", "assay": "p21 gene expression (Taqman, normalized to GAPDH) in neonatal human dermal fibroblasts", "format": "cell-based", "conditions": "after 6 days", "experimental": "(§3) Neonatal human dermal fibroblasts (fibroblast cell line NHDF-3955-Neo from Lonza) are cultured under standard cell culture conditions using hFib media (DMEM, 20% Earl's 199 media, 10% FBS, Glutamax, beta-mercaptoethanol (bME)). Approximately 12,000 cells per well are plated on a 12-well plate. 24 hrs after plating, cells are daily fed with media containing 4, 10 or 20 μM DIM (Sigma) or 1% DMSO. After 6 days, cells are collected and RNA is extracted using a Qiagen RNeasy kit. Gene expression is analyzed using specific Taqman primer-probe sets for Klf4, p21 and GAPDH on an ABI 7900HT. Gene expression of cells previously infected with retroviruses encoding Sox2, Oct4, Klf4, and c-Myc (“KSOM”) is also analyzed and is used for positive control purposes. The expression of Klf4 and p21 is normalized to the expression of housekeeping gene GAPDH."}, "Klf4": {"tested_on": "Klf4", "assay": "Klf4 gene expression (Taqman, normalized to GAPDH) in neonatal human dermal fibroblasts", "format": "cell-based", "conditions": "after 6 days", "experimental": "as §3"}, "Oct4": {"tested_on": "Oct4", "assay": "Oct4 gene expression (Taqman, normalized to GAPDH) in neonatal human dermal fibroblasts", "format": "cell-based", "conditions": "for increase in Oct4 compared to cells that receive no agent treatment / increase in relative expression of Oct4 compared to cells treated with DMSO: after 6 days, hFib media", "experimental": "as §1, §2\nNeonatal human dermal fibroblasts (fibroblast cell line NHDF-3955-Neo from Lonza) are cultured under standard cell culture conditions using hES medium, as described herein. Cells are treated with 0 μM, 2 μM, 10 μM, 50 μM, or 100 μM GPI-1046. On day 5 or day 8 after treatment, cells are collected and RNA is extracted using a Qiagen RNeasy kit. Gene expression is analyzed using specific Taqman primer-probe sets for Sox2, Oct4 and GAPDH on an ABI 7900HT. Gene expression of cells previously infected with retroviruses encoding Sox2, Oct4, Klf4, and c-Myc (“KSOM”) is also analyzed and is used for positive control purposes. The expression of Sox2 and Oct4 is normalized to the expression of housekeeping gene GAPDH. […] The morphology of cells infected with viruses encoding KSOM is depicted in FIG. 8."}, "human BJ fibroblasts": {"tested_on": "human BJ fibroblasts", "conditions": "BJ fibroblasts (lack TERT), Day 8, reduced sensitivity compared to BJ-5Tα", "from_the_text": "In order to determine the effect of TGFβR inhibitor compounds on reprogramming we combined low multiplicity of infection (MOI) of retroviruses for three induction factor (Klf4, Sox2, and Oct ¾ or “KSO”) and four induction factor (Klf4, Sox2, Oct3/4, c-Myc or “KSOM”) reprogramming with various TGFβR inhibitors in human BJ-5Tα fibroblasts or BJ fibroblasts. […] By utilizing a low MOI infection protocol, we increased the sensitivity of the assay to detect the ability of various TGFβR inhibitor compounds to enhance the efficiency of reprogramming by three or four induction factor combinations.\nAdherent BJ or BJ-5Tα (TERT-immortalized) fibroblast cells were infected “in bulk” with retroviruses for expression of the three induction factors (also referred to as “reprogramming factors”) KLF4, OCT3/4 and SOX2 (“KSO”), or the cells were infected with retroviruses for expression of KLF4, OCT4, SOX2 and c-MYC (“KSOM”), in each case at a multiplicity of infection (MOI) of 1, and transferred into 96-well plates in a serum-free human embryonic stem cell (hES) medium. […] AP activity was determined quantitatively using a chemiluminescent 1,2-dioxetane-phosphate substrate, which upon dephosphorylation by AP forms a metastable phenolate anion intermediate that decomposes emitting light quantified by a microplate luminometer."}, "human BJ-5Tα fibroblasts": {"tested_on": "human BJ-5Tα fibroblasts", "conditions": "Day 8", "experimental": "In the case of compound 616452, cells KSO and KSOM-infected BJ-5Tα fibroblasts were fixed by 4% paraformaldehyde at Day 8, and then incubated with 50 μl 1-Step NBT/BCIP for 20 minutes for AP staining AP staining-positive colonies were counted (see FIGS. 15-16)."}, "mouse fibroblasts": {"tested_on": "mouse fibroblasts", "conditions": "cited from earlier work"}, "[1]": {"conditions": "100 μM with 0.5 μM Decitabine, day 7 of treatment"}, "[2]": {"conditions": "100 μM, no Decitabine, day 7 of treatment"}}, "note": "Read-outs that look alike come from different tables or passages of the source.", "data": [{"molecule": "Cc1cccc(-c2nc(C(C)(C)C)[nH]c2-c2ccc3c(c2)OCO3)n1", "note": "[616 453]", "values": [{"measurement": "relative Sox2 expression", "setting": "Sox2; 1 μM, day 7 of treatment", "result": "an increase in relative Sox2 expression"}, {"measurement": "relative Sox2 expression", "setting": "Sox2; 50 μM plus 0.5 μM Decitabine, day 7 of treatment", "result": "an increase in relative Sox2 expression"}, {"measurement": "Sox2 expression compared to cells that receive no treatment", "setting": "Sox2; 2, 5, 25 or 50 μM, after 6 days", "result": "an increase in Sox2 expression"}, {"measurement": "relative Sox2 expression compared to cells treated with DMSO", "setting": "Sox2; 2, 5 and 50 μM, after 6 days", "result": "an increase in relative Sox2 expression"}]}, {"molecule": "Cc1cccc(-c2nn(C(=S)Nc3ccccc3)cc2-c2ccnc3ccccc23)n1", "note": "[A-83-01]", "values": [{"measurement": "relative expression of Sox2 compared to control cells", "setting": "Sox2; 1 or 100 μM, absence of Decitabine, day 7 of treatment", "result": "increased relative expression of Sox2"}, {"measurement": "relative Sox2 expression compared to control cells", "setting": "Sox2; 1 or 100 μM, presence of 0.5 μM Decitabine, day 7 of treatment", "result": "a slight increase of relative Sox2 expression"}]}, {"molecule": "c1ccc2c(Cc3c[nH]c4ccccc34)c[nH]c2c1", "note": "[DIM]", "values": [{"measurement": "increase in p21 expression relative to cells treated with no agent", "setting": "p21; 4 μM", "result": "approximately 2 fold"}, {"measurement": "increase in p21 expression compared to cells treated with no agent", "setting": "p21; 10 μM", "result": "approximately 2 fold"}, {"measurement": "increase in Klf4 expression relative to cells treated with no agent", "setting": "Klf4; 4 μM", "result": "approximately 2 fold"}, {"measurement": "increase in Klf4 expression compared to cells treated with no agent", "setting": "Klf4; 10 μM", "result": "~3.2", "unit": "fold"}]}, {"molecule": "CCC(C)(C)C(=O)C(=O)N1CCCC1C(=O)OCCCc1cccnc1", "note": "(centres unmarked) [GPI-1046]", "values": [{"measurement": "increase in Oct4 compared to cells that receive no agent treatment", "setting": "Oct4; 50 μM", "result": "about 5.2 fold"}, {"measurement": "increase in relative expression of Oct4 compared to cells treated with DMSO", "setting": "Oct4; 50 μM", "result": "~3.5", "unit": "fold"}, {"measurement": "Oct4 expression compared to control cells", "setting": "Oct4; [1]", "result": "slightly increased expression"}, {"measurement": "relative Oct4 expression compared to cells that do not receive drug treatment", "setting": "Oct4; 100 μM, Day 8, hES medium", "result": "increases in relative Sox2 and Oct4 expression"}, {"measurement": "increase in Oct4 compared to cells that receive no agent treatment", "setting": "Oct4; 100 μM", "result": "~5.7", "unit": "fold"}, {"measurement": "increase in relative expression of Oct4 compared to cells treated with DMSO", "setting": "Oct4; 100 μM", "result": "~3.8", "unit": "fold"}, {"measurement": "increase in Oct4 expression compared to control cells", "setting": "Oct4; [2]", "result": "~4.3", "unit": "fold"}, {"measurement": "levels of Sox2, Oct3/4 or both versus cells treated with no agent", "setting": "Sox2; 4 μM, 10 μM, or 20 μM, after 6 days, hFib media", "result": "higher levels of Sox2, Oct3/4 or both"}, {"measurement": "increase of relative Sox2 expression compared to cells treated with DMSO", "setting": "Sox2; 50 μM or 100 μM, after 6 days, hFib media", "result": "~1.6", "unit": "fold"}, {"measurement": "increase in Sox2 expression compared to cells that receive no drug treatment", "setting": "Sox2; 50 μM, after 6 days, hFib media", "result": 4.4, "unit": "fold"}, {"measurement": "Sox2 expression compared to control cells", "setting": "Sox2; [1]", "result": "slightly increased expression"}, {"measurement": "relative Sox2 expression compared to control cells", "setting": "Sox2; 100 μM, Day 5, hES medium", "result": "an increase in relative Sox2 expression"}, {"measurement": "relative Sox2 expression compared to cells that do not receive drug treatment", "setting": "Sox2; 100 μM, Day 8, hES medium", "result": "increases in relative Sox2 and Oct4 expression"}, {"measurement": "increase in Sox2 expression compared to cells that receive no drug treatment", "setting": "Sox2; 100 μM, after 6 days, hFib media", "result": 4.5, "unit": "fold"}, {"measurement": "increase in Sox2 expression compared to control cells", "setting": "Sox2; [2]", "result": "~3.5", "unit": "fold"}]}, {"molecule": "NC(=O)c1ccc(-c2nc(-c3ccc4c(c3)OCO4)c(-c3ccccn3)[nH]2)cc1", "note": "[SB 431542]", "values": [{"measurement": "relative Sox2 expression", "setting": "Sox2; 100 μM plus 0.5 μM Decitabine, day 7 of treatment", "result": "an increase in relative Sox2 expression"}]}, {"molecule": "Cc1cccc(-c2n[nH]cc2-c2ccc3ncccc3n2)n1", "note": "[compound 616452]", "values": [{"measurement": "alkaline phosphatase activity", "setting": "human BJ fibroblasts; four factor (KSOM) reprogramming", "result": "increased alkaline phosphatase activity"}, {"measurement": "alkaline phosphatase activity", "setting": "human BJ fibroblasts; three factor (KSO) reprogramming", "result": "increased alkaline phosphatase activity"}, {"measurement": "increase in number of AP positive colonies", "setting": "human BJ-5Tα fibroblasts; KSO-infected BJ-5Tα fibroblasts", "result": "greater than ten fold"}, {"measurement": "increase in number of AP positive colonies", "setting": "human BJ-5Tα fibroblasts; KSOM-infected BJ-5Tα fibroblasts", "result": "approximately five fold"}]}, {"molecule": "Wnt3a: Wnt cell signaling molecule (protein, UniProt P56704 19-352, looked up) Protein Wnt-3a: SYPIWWSLAVGPQYSSLGSQPILCASIPGLVPKQLRFCRNYVEIMPSVAEGIKIGIQECQHQFRGRRWNCTTVHDSLAIFGPVLDKATRESAFVHAIASAGVAFAVTRSCAEGTAAICGCSSRHQGSPGKGWKWGGCSEDIEFGGMVSREFADARENRPDARSAMNRHNNEAGRQAIASHMHLKCKCHGLSGSCEVKTCWWSQPDFRAIGDFLKDKYDSASEMVVEKHRESRGWVETLRPRYTYFKVPTERDLVYYEASPNFCEPNPETGSFGTRDRTCNVSSHGIDGCDLLCCGRGHNARAERRREKCRCVFHWCCYVSCQECTRVYDVHTCK", "values": [{"measurement": "enhancement of reprogramming efficiency", "setting": "mouse fibroblasts; mouse fibroblasts in the presence of factors Oct4, Sox2 and Klf4", "result": "about 20 fold"}, {"measurement": "enhancement of reprogramming efficiency", "setting": "mouse fibroblasts; mouse fibroblasts with Oct4, Sox2, Klf4 and c-Myc", "result": 1.2, "unit": "fold"}]}]}
